# Measured values: patent publication US12492193B2, “Pyrazole derivatives for the treatment of cystic fibrosis” (Fondazione Istituto Italiano Di Tecnologia, priority 2017, dated 2025)
# Molecular target: T1, mutant CFTR (Homo sapiens, UniProt P13569, DEL508-508)
# T1 construct: expressed in transfected cells
# Test: Fluorescence (HS-YFP) assay for CFTR activity, corrector assay
# Type: cell-based
# Details: CFBE41o- and FRT cells with stable expression of mutant CFTR, 24 h compound treatment
# Protocol: Fluorescence Assay for CFTR Activity
# Mutant CFTR activity was determined with the functional assay based on the halide-sensitive yellow fluorescent protein, HS-YFP (Galietta et al., FEBS Lett 499: 220-224, 2001). CFBE41o- and FRT cells with stable expression of mutant CFTR and HS-YFP were plated on clear-bottom 96-well black microplates (Code 3603, Corning Life Sciences) at a density of 50,000 cells/well and kept at 37° C. in 5% CO2 for 24 hours. For the corrector assay, cells were treated for further 24 hours with test compounds, vehicle (DMSO), or the positive control VX-809. After treatment, the culture medium was removed and cells in each well were stimulated for 30 min at 37° C. with 60 μL PBS (containing 137 mM NaCl, 2.7 mM KCl, 8.1 mM Na2HPO4, 1.5 mM KH2PO4, 1 mM CaCl2, and 0.5 mM MgCl2) plus forskolin (20 μM) and genistein (50 μM).
# For determination of potentiator activity on G551D-CFTR or G1349D-CFTR, cells were directly stimulated with forskolin plus test compound without previous incubation at low temperature. At the time of assay, microplates carrying CFBE41o- or FRT cells were transferred to microplate readers (BMG Labtech) equipped with high-quality excitation (HQ500/20X: 500±10 nm) and emission (HQ535/30M: 535±15 nm) filters for YFP (Chroma Technology). The assay consisted of a continuous 14 s fluorescence reading with 2 s before and 12 s after injection of an iodide-containing solution (165 μL of a modified PBS containing I^− instead of Cl^−; final I^− concentration in the well: 100 mM). Data were normalized to the initial background-subtracted fluorescence. Enhanced CFTR activity, induced by correctors and/or potentiators, results in accelerated I^− influx that in turn causes faster HS-YFP quenching (Pedemonte et al., Mol Pharmacol 68:1736-1746, 2005; Pedemonte et al., J Clin Invest 115:2564-2571, […]). To determine fluorescence quenching rate associated with I^− influx, the […] 10 s of data for each well were fitted with an exponential function to extrapolate initial slope (dF/dt).
# EC50 obtained are illustrated in table 1 wherein +: EC50>2 μM; ++: 1.0 μM<EC50<2 μM; +++: EC50<1 μM.
# T1 sequence (P13569 with tags, fused parts or gaps DEL508-508): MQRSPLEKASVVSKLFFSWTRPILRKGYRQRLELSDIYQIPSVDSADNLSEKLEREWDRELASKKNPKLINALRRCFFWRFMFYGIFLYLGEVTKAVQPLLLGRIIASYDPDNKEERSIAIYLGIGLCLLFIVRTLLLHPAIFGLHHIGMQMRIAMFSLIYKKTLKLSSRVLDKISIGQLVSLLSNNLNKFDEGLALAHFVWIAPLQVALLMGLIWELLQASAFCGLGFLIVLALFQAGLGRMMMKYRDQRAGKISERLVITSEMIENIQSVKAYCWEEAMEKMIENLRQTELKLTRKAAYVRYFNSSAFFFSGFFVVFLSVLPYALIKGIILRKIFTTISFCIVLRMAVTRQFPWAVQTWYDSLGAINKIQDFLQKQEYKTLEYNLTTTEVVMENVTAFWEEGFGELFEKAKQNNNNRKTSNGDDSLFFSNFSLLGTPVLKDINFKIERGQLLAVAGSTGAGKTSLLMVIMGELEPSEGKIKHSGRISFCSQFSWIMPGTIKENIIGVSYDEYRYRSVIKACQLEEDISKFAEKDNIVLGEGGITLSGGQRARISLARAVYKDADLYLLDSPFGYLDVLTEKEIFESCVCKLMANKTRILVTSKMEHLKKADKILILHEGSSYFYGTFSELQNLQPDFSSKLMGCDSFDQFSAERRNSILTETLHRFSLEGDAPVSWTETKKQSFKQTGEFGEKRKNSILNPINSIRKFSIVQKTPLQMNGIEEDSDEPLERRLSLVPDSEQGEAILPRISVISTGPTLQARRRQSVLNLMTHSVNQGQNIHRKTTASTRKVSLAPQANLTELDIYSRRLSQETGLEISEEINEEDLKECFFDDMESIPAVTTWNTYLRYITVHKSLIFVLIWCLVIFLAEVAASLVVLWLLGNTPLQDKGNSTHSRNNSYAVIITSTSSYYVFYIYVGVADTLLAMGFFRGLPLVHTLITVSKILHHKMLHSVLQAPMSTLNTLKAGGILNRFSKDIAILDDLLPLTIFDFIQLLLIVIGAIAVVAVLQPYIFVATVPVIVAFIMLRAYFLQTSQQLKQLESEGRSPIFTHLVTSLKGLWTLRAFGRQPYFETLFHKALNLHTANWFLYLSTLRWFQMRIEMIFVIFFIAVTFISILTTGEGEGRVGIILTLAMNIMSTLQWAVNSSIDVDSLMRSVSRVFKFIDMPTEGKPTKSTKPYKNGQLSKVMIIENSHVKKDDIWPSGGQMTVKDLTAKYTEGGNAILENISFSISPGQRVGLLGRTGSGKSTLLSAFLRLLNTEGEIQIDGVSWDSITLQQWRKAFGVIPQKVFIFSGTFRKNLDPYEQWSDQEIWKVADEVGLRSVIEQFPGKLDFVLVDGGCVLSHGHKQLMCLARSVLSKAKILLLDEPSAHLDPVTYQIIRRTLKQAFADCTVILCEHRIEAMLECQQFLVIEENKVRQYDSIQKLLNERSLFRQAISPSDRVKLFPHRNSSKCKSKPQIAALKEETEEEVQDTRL
row,SMILES,EC50
1,"COc1ccccc1-c1c(Cl)c(C(F)(F)F)nn1-c1cccc(C(=O)N(C)c2ccc3c(c2)OCO3)c1 [compound 183, N-(1,3-Benzodioxol-5-yl)-3-[4-chloro-5-(2-methoxyphenyl)-3-(trifluoromethyl)pyrazol-1-yl]-N-methyl-benzamide]",< 1000 nM
2,"Cc1c(Cl)c(C(F)(F)F)nn1-c1cccc(C(=O)Nc2ccc3c(c2)OCO3)c1 [compound 128, N-(1,3-Benzodioxol-5-yl)-3-[4-chloro-5-methyl-3-(trifluoromethyl)pyrazol-1-yl]benzamide]",> 2000 nM
3,"Cc1nc2ccc(N(C)C(=O)c3cccc(-n4nc(C(F)(F)F)c(Cl)c4OCc4ccc(C(=O)O)cc4)c3)cc2o1 [compound 198, 4-[[4-Chloro-2-[3-[methyl-(2-methyl-1,3-benzoxazol-6-yl)carbamoyl]phenyl]-5-(trifluoromethyl)pyrazol-3-yl]oxymethyl]benzoic acid]",< 1000 nM
4,"COc1ccc(NC(=O)c2cccc(-n3nc(C)c(Cl)c3C)c2)cc1OC [Int-013, 3-(4-Chloro-3,5-dimethyl-pyrazol-1-yl)-N-(3,4-dimethoxyphenyl)benzamide]",> 2000 nM
5,"CN(C(=O)c1cccc(-n2nc(C(F)(F)F)c(C=O)c2Oc2ccccc2)c1)c1ccc2c(c1)OCO2 [compound 180, N-(1,3-Benzodioxol-5-yl)-3-[4-formyl-5-phenoxy-3-(trifluoromethyl)pyrazol-1-yl]-N-methyl-benzamide]",< 1000 nM
6,"Cc1nn(-c2cccc(C(=O)N(c3ccc4c(c3)OCCO4)C(C)C)c2)c(C)c1Cl [compound 003, 3-(4-Chloro-3,5-dimethyl-pyrazol-1-yl)-N-(2,3-dihydro-1,4-benzodioxin-6-yl)-N-isopropyl-benzamide]",> 2000 nM
7,"Cc1noc2cc(N(C)C(=O)c3cccc(-n4nc(C(F)(F)F)cc4OCc4ccc(C(=O)O)cc4)c3)ccc12 [compound 263, 4-[[2-[3-[Methyl-(3-methyl-1,2-benzoxazol-6-yl)carbamoyl]phenyl]-5-(trifluoromethyl)pyrazol-3-yl]oxymethyl]benzoic acid]",> 2000 nM
8,"Cc1nc2cc(F)c(NC(=O)c3cccc(-n4nc(C(F)(F)F)c(Cl)c4C)c3)cc2o1 [Int-153, 3-[4-Chloro-5-methyl-3-(trifluoromethyl)pyrazol-1-yl]-N-(5-fluoro-2-methyl-1,3-benzoxazol-6-yl)benzamide]",< 1000 nM
9,"CCOC(=O)c1ccc(OCc2c(Cl)c(C(F)(F)F)nn2-c2cccc(C(=O)N(C)c3ccc4c(c3)OCO4)c2)cc1 [compound 150, Ethyl 4-[[2-[3-[1,3-benzodioxol-5-yl(methyl)carbamoyl]phenyl]-4-chloro-5-(trifluoromethyl)pyrazol-3-yl]methoxy]benzoate]",< 1000 nM
10,"CC(=O)c1c(Cl)c(C)nn1-c1cccc(C(=O)N(C)c2ccc3c(c2)OCO3)c1 [compound 116, 3-(5-Acetyl-4-chloro-3-methyl-pyrazol-1-yl)-N-(1,3-benzodioxol-5-yl)-N-methyl-benzamide]",< 1000 nM
11,"CCN(C(=O)c1cccc(-n2nc(C(F)(F)F)c(Cl)c2C2CC2)c1)c1ccc2nc(C)oc2c1 [compound 135, 3-[4-Chloro-5-cyclopropyl-3-(trifluoromethyl)pyrazol-1-yl]-N-ethyl-N-(2-methyl-1,3-benzoxazol-6-yl)benzamide]",< 1000 nM
12,"CN(C(=O)c1cccc(-n2nc(C(F)(F)F)c(Cl)c2COc2ccc(C(=O)OC(C)(C)C)cc2)c1)c1ccc2c(c1)OC(F)(F)O2 [compound 175, Tert-butyl 4-[[4-chloro-2-[3-[(2,2-difluoro-1,3-benzodioxol-5-yl)-methyl-carbamoyl]phenyl]-5-(trifluoromethyl)pyrazol-3-yl]methoxy]benzoate]",< 1000 nM
13,"CN(C(=O)c1cccc(-n2nc(C(F)(F)F)c(Cl)c2COc2ccc(C(=O)O)cc2)c1)c1cnc2c(c1)OCO2 [compound 267, 4-[[4-Chloro-2-[3-[[1,3]dioxolo[4,5-b]pyridin-6-yl (methyl)carbamoyl]phenyl]-5-(trifluoromethyl)pyrazol-3-yl]methoxy]benzoic acid]",< 1000 nM
14,"Cc1nn(-c2cccc(C(=O)N(C)c3cc4c(cc3Cl)OC(F)(F)O4)c2)c(C)c1Cl [compound 049, N-(6-Chloro-2,2-difluoro-1,3-benzodioxol-5-yl)-3-(4-chloro-3,5-dimethyl-pyrazol-1-yl)-N-methyl-benzamide]",< 1000 nM
15,"Cc1nn(-c2cccc(C(=O)Nc3ccc4c(c3)OCCN4)c2)c(C)c1Cl [Int-018, 3-(4-chloro-3,5-dimethyl-pyrazol-1-yl)-N-(3,4-dihydro-2H-1,4-benzoxazin-7-yl)benzamide]",> 2000 nM
16,"CN(C(=O)c1cccc(-n2nc(C(F)(F)F)c(C#N)c2Oc2ccc(C(=O)O)cc2)c1)c1ccc2c(c1)OCO2 [compound 210, 4-[2-[3-[1,3-Benzodioxol-5-yl(methyl)carbamoyl]phenyl]-4-cyano-5-(trifluoromethyl)pyrazol-3-yl]oxybenzoic acid]",> 2000 nM
17,"CN(C(=O)c1cccc(-n2nc(C(F)(F)F)c(Cl)c2OCc2ccccc2)c1)c1ccc2c(c1)OCO2 [compound 134, N-(1,3-Benzodioxol-5-yl)-3-[5-benzyloxy-4-chloro-3-(trifluoromethyl)pyrazol-1-yl]-N-methyl-benzamide]",< 1000 nM
18,"CCOC(=O)CCC(=O)N1CCC(Oc2cc(C(F)(F)F)nn2-c2cccc(C(=O)N(C)c3ccc4c(c3)OC(F)(F)O4)c2)CC1 [compound 260, Ethyl 4-[4-[2-[3-[(2,2-difluoro-1,3-benzodioxol-5-yl)-methyl-carbamoyl]phenyl]-5-(trifluoromethyl)pyrazol-3-yl]oxy-1-piperidyl]-4-oxo-butanoate]",< 1000 nM
19,"Cc1nn(-c2cccc(C(=O)N(C)c3ccc4c(c3)OCCO4)c2)c(C)c1C(C)(C)C [compound 037, 3-(4-tert-Butyl-3,5-dimethyl-pyrazol-1-yl)-N-(2,3-dihydro-1,4-benzodioxin-6-yl)-N-methyl-benzamide]",1000 to 2000 nM
20,"Cc1nn(-c2cccc(C(=O)N(C)c3ccc4oc(C5CC5)nc4c3)c2)c(C)c1Cl [compound 055, 3-(4-Chloro-3,5-dimethyl-pyrazol-1-yl)-N-(2-cyclopropyl-1,3-benzoxazol-5-yl)-N-methyl-benzamide]",1000 to 2000 nM
21,"Cc1nn(-c2cccc(C(=O)Nc3ccc4c(c3)OC(F)(F)O4)c2)c(C)c1Cl [Int-006, 3-(4-Chloro-3,5-dimethyl-pyrazol-1-yl)-N-(2,2-difluoro-1,3-benzodioxol-5-yl)benzamide]",> 2000 nM
22,"Cc1nc2ccc(NC(=O)c3cccc(-n4nc(C(F)(F)F)c(Cl)c4C)c3)cc2o1 [compound 120, 3-[4-Chloro-5-methyl-3-(trifluoromethyl)pyrazol-1-yl]-N-(2-methyl-1,3-benzoxazol-6-yl)benzamide]",1000 to 2000 nM
23,"Cc1nn(-c2nccc(C(=O)N(C)c3ccc4c(c3)OCO4)n2)c(C)c1Cl [compound 072, N-(1,3-Benzodioxol-5-yl)-2-(4-chloro-3,5-dimethyl-pyrazol-1-yl)-N-methyl-pyrimidine-4-carboxamide]",> 2000 nM
24,"[2H]C([2H])([2H])N(C(=O)c1cccc(-n2nc(C)c(Cl)c2C)c1)c1ccc2c(c1)OC(F)(F)O2 [compound 039, 3-(4-Chloro-3,5-dimethyl-pyrazol-1-yl)-N-(2,2-difluoro-1,3-benzodioxol-5-yl)-N-(trideuteriomethyl) benzamide]",1000 to 2000 nM
25,"Cc1c(Cl)c(C(F)(F)F)nn1-c1cccc(C(=O)Nc2cc3c(cc2C=O)OCO3)c1 [Int-160, 3-[4-chloro-5-methyl-3-(trifluoromethyl)pyrazol-1-yl]-N-(6-formyl-1,3-benzodioxol-5-yl)benzamide]",> 2000 nM
26,"Cc1nc2cc(N(C)C(=O)c3cccc(-n4nc(C)c(Cl)c4C)c3)ccc2o1 [compound 025, 3-(4-Chloro-3,5-dimethyl-pyrazol-1-yl)-N-methyl-N-(2-methyl-1,3-benzoxazol-5-yl)benzamide]",> 2000 nM
27,Cc1nn(-c2cccc(C(=O)Nc3ccc4c(c3)CCO4)c2)c(C)c1Cl [Int-052],> 2000 nM
28,"CN(C(=O)c1cccc(-n2nc(C(F)(F)F)c(Cl)c2OCc2ccc(C(=O)O)cc2)c1)c1ccc2c(c1)OC(F)(F)O2 [compound 211, 4-[[4-Chloro-2-[3-[(2,2-difluoro-1,3-benzodioxol-5-yl)-methyl-carbamoyl]phenyl]-5-(trifluoromethyl)pyrazol-3-yl]oxymethyl]benzoic acid]",< 1000 nM
29,"CN(C(=O)c1cccc(-n2nc(C(F)(F)F)cc2COc2ccc(C(=O)O)cc2)c1)c1ccc2c(c1)OC(F)(F)O2 [compound 218, 4-[[2-[3-[(2,2-difluoro-1,3-benzodioxol-5-yl)-methyl-carbamoyl]phenyl]-5-(trifluoromethyl)pyrazol-3-yl]methoxy]benzoic acid]",< 1000 nM
